# What was measured:
# [1] = tested on: C1013G/CXCR4-infected BCWM.1 cells; assay: [3H]-thymidine uptake proliferation assay of C1013G/CXCR4-infected cells; assay type: cell-based, human; conditions: in the context of the BM microenvironment, 48 h
# Method: (§1) FIGS. 21A-21D: FIGS. 21A-21D show BMS-936564 targets C1013G/CXCR4-mutated cells in WM cells in the context of BM. C1013G/CXCR4-infected BCWM.1 cells were tested for their migratory properties using a transwell migration assay. Cells were exposed to increasing concentrations of BMS-936564 and migration was determined after 5 h. The transwell migration assay was performed in presence of either primary WM BM-MSCs (FIG. 21A) or SDF-1α (FIG. 21B). In both cases, BMS-936564-dependent inhibition of WM cell migration was observed. C1013G/CXCR4-infected BCWM.1 cells were treated with BMS-936564/for 4 h and subsequently tested for adhesion to primary WM BM-MSCs. […] C1013G/CXCR4-infected BCWM.1 cells were cultured with control media and with BMS-936564 for 48 h in the presence or absence of primary WM BM-MSCs. Cell proliferation was assessed using [^3H]-thymidine uptake assay (FIG. 21D). Bars indicate standard deviations. P indicates P value. All data represent mean (±sd) of triplicate experiments. […].
# [2] = tested on: WM cell lines (MWCL.1; BCWM.1); assay: [3H]-thymidine uptake proliferation assay in presence of primary WM BM-MSCs; assay type: cell-based, human; conditions: 48 h
# Method: FIGS. 15A-15C: FIGS. 15A-15C show the effect of BMS-936564 on adhesion and proliferation of WM cells in vitro. WM cell lines were treated with BMS-936564 for 4 h and subsequently tested for adhesion to primary WM BM-MSCs. […] WM cell lines, MWCL.1 (FIG. 15B) and BCWN.1 (FIG. 15C) were cultured with control media and with BMS-936564 for 48 h in the presence or absence of primary WM BMMSCs. Cell proliferation was assessed using a [^3H]-thymidine uptake assay. Bars indicate standard deviations. P indicates P value. All data represent mean (±sd) of triplicate experiments. The CXCR4 antagonist, […] (Sigma-Aldrich, St. Louis, Mo.), was used as control.
# [3] = tested on: C1013G/CXCR4-infected BCWM.1 cells; assay: Adhesion of C1013G/CXCR4-infected cells to primary WM BM-MSCs; assay type: cell-based, human; conditions: in the context of the BM microenvironment
# Method: as §1
# [4] = tested on: WM cell lines (BCWM.1; MWCL.1); assay: Transwell migration assay of WM cell lines; assay type: cell-based, human; conditions: increasing concentrations, 5 h
# Method: FIGS. 14A and 14B: FIGS. 14A and 14B show the effect of BMS-936564 on migration of WM cells in vitro. WM cell lines (BCWM.1; MWCL.1) were tested for their migratory properties using a transwell migration assay. Cells were exposed to increasing concentrations of BMS-936564 and migration was determined after 5 h. The transwell migration assay was performed in presence of either primary WM BM-MSCs (FIG. 14A) or in presence of SDF-1α (FIG. 14B). In both cases, BMS-936564-dependent inhibition of WM cell migration was observed.
# [5] = tested on: C1013G/CXCR4 variant-harboring BCWM.1 cells; assay: In vivo dissemination of C1013G/CXCR4-mutated WM cells (immunohistochemistry for human CD20 and CXCR4); design: species or system SCID/Bg mice; conditions: 10 mg/kg intraperitoneally, 3-4 times per week for 3 weeks
# Method: FIGS. 20A-20E: FIGS. 20A-20E show representative histochemical images of the effect of BMS-936564 on C1013G/CXCR4-mutated cells in WM cells in vivo. SCID/Bg mice were injected intravenously with either C1013G/CXCR4 variant-harboring BCWM.1 cells or empty/control vector-infected cells (control cells). Mice were treated with either BMS-936564 or control antibody (10 mg/kg, intraperitoneally; ×3/4/week; mice: 5/group). After 3 weeks mice were euthanized and organs harvested. Hematoxylin-eosin immunohistochemical staining for human CD20 and CXCR4 were performed on femur BM (FIG. 20A), liver (FIG. 20B), kidney (FIG. 20C), lung (FIG. 20D), and lymph nodes (FIG. 20E) (Nikon, Melville, N.Y.; 4×, 10× or 20× magnifications are shown).
# Murine tissues (BM, liver, kidney, lung and lymph nodes) were analyzed and quantified for the expression of human CD20 and human CXCR4. These tissues were fixed in formalin 10%, ethanol 70% was used as storage solution; and embedded in paraffin. Paraffin sections were incubated with anti-human-CXCR4 (Abcam, Cambridge, Mass.), and anti-human-CD20 (Dako, Carpinteria, Calif.) monoclonal antibodies, using the Leica Bond III automated staining platform (Leica Biosystems, Buffalo Grove, Ill.). […] Quantification of CD20 and CXCR4 staining was performed using NIS Elements software (Nikon, Melville, N.Y.). […]
# [6] = tested on: BCWM.1 cells; assay: Western blot of survival signaling in WM cells; assay type: cell-based, human; conditions: 6 h, cultured in the context of BM-MSCs, increasing concentrations
# Method: BCWM.1 cells were exposed to BMS-936564 for 6 h in presence or absence of primary WM BM-MSCs. The BCWM.1 cells were then harvested and cell lysates were subjected to western blot analysis using anti-phospho(p)-ERK1/2, anti-ERK1/2, anti-p-Akt, anti-Akt, anti-p-SRC, and anti-SRC antibodies. BCWM.1 cells cultured in the absence of WM BM-MSCs were used as control. Bars indicate standard deviation.
# Protein lysates were obtained from WM cells by homogenization under nondenaturing conditions in lysis buffer (Cell Signaling Technology, Beverly, Mass.) supplemented with 5 mM NaF, 2 mM Na3VO4, 1 mM PMSF ([…]), 5 μg/mL leupeptine, and 5 μg/mL aprotinin. Whole-cell lysates were subjected to sodium dodecyl sulfate-polyacrylamide gel electrophoresis (SDS-PAGE) and transferred to polyvinylidene difluoride (PVDF) membrane (Bio-Rad Laboratories, Hercules, Calif.). The antibodies used for immunoblotting included: anti-phospho(p)-ERK, anti-ERK, anti-p-Akt, anti-Akt, anti-p-Src, anti-Src, anti-caspase-9, anti-PARP, anti-p-β-catenin, anti-β-catenin, anti-p-GSK3, anti-GAPDH and anti-α-tubulin antibodies (Cell Signaling, Danvers, Mass.).
# To dissect the possible role of BMS-936564 in affecting WM signaling, WM cells were cultured in the absence or presence of primary WM BM-MSCs, with increasing concentrations of the anti-CXCR4 antibody.
substance,measurement,setting,value
"BMS-936564: fully human anti-CXCR4 monoclonal antibody; VH SEQ ID NO: 25, VL SEQ ID NO: 29",targeting proliferative properties of CXCR4-mutated cells,[1],equally active
same,WM cell proliferation in presence of WM BM-MSCs,[2],inhibition
same,targeting adhesion of CXCR4-mutated cells,[3],equally active
same,migration of WM cell lines towards SDF-1,[4],inhibit migration
same,migration of WM cell lines towards primary WM BM-MSCs,[4],inhibit migration
same,involvement of lymph nodes,[5],absent
same,"CXCR4+/CD20+ cell infiltration in femur, liver, kidney and lung",[5]; vs control antibody-treated mice,significant reduction
same,"p-Akt, p-ERK, and p-Src in WM cells",[6],drug-dependent inhibition

# From patent US11220548B2, “Treatment of C1013G/CXCR4-associated Waldenstrom's macroglobulinemia with an anti-CXCR4 antibody” (BRISTOL-MYERS SQUIBB COMPANY, priority 2013, dated 2022)
